Data published in the NIST ThermoML archive (doi:10.1021/acs.jced.6b00043).

Details: 1008.1 K; Crystal; Closed cell (Static) method

- vapor or sublimation pressure: 1.552 kPa
Compound: O=C([O-])[O-].[Li+].[Li+] [lithium carbonate]
